In brackets after ≈: the same amount, converted by molar mass. Read-outs that look alike come from different tables or passages of the source.
Columns and labels:
[1] = tested on: Pasteurella hemolytica 22C; test: MIC, conventional broth-dilution microtiter test; assay type: cell-based; settings: broth-dilution microtiter; Pasteurella hemolytica 22C; read-out: MIC
Summary of the method: (§1)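 Agar plates containing graded compound levels gave the Klebsiella value. Graded broth dilutions in microtiter plates gave the Pasteurella and Mycoplasma values.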

[2] = tested on: Pasteurella hemolytica 41D; test: MIC, conventional broth-dilution microtiter test; assay type: cell-based; settings: broth-dilution microtiter; Pasteurella hemolytica 41D; read-out: MIC
Summary of the method: as §1

[3] = tested on: Mycoplasma gallisepticum; test: MIC, conventional broth-dilution microtiter test; assay type: cell-based; settings: Mycoplasmoides gallisepticum
Summary of the method: as §1

[4] = tested on: Pasteurella multocida 17E; test: MIC, conventional broth-dilution microtiter test; assay type: cell-based
Summary of the method: as §1

[5] = tested on: Pasteurella multocida 60A; test: MIC, conventional broth-dilution microtiter test; assay type: cell-based
Summary of the method: as §1

[6] = tested on: Mycoplasma gallisepticum 41313; test: MIC, conventional broth-dilution microtiter test; assay type: cell-based; settings: Mycoplasmoides gallisepticum; broth-dilution microtiter; Mycoplasma gallisepticum 41313, Resistant strain; read-out: MIC
Summary of the method: as §1

[7] = tested on: Mycoplasma synoviae; test: MIC, conventional broth-dilution microtiter test; assay type: cell-based; settings: Mycoplasmopsis synoviae
Summary of the method: (§2)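 Minimum inhibitory concentrations are determined by conventional broth dilution in microtiter wells for Pasteurella and Mycoplasma isolates. For Klebsiella pneumoniae KAE, the standard agar-dilution assay is used.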

[8] = tested on: Pasteurella multocida 40G; test: MIC, conventional broth-dilution microtiter test; assay type: cell-based
Summary of the method: as §1

[9] = tested on: Mycoplasma hyorhinis; test: MIC, conventional broth-dilution microtiter test; assay type: cell-based
Summary of the method: as §2

[10] = tested on: Pasteurella multocida 22A; test: MIC, conventional broth-dilution microtiter test; assay type: cell-based
Summary of the method: as §1

[11] = tested on: Mycoplasma gallisepticum 34159; test: MIC, conventional broth-dilution microtiter test; assay type: cell-based; settings: Mycoplasmoides gallisepticum; broth-dilution microtiter; Mycoplasma gallisepticum 34159, Resistant strain; read-out: MIC
Summary of the method: as §1

[12] = tested on: Staphylococcus aureus; test: MIC, conventional broth-dilution microtiter test; assay type: cell-based
Description: (§3) Certain of the derivatives are active against some gram-negative bacteria, such as Pasteurella species. The MIC's in Table II were determined by standard agar-dilution assays. The MIC's in Table III were obtained using a conventional broth-dilution microtiter test.

[13] = tested on: Pasteurella multocida 68C; test: MIC, conventional broth-dilution microtiter test; assay type: cell-based
Summary of the method: as §1

[14] = tested on: Pasteurella hemolytica 23C; test: MIC, conventional broth-dilution microtiter test; assay type: cell-based; settings: broth-dilution microtiter; Pasteurella hemolytica 23C; read-out: MIC
Summary of the method: as §1

[15] = tested on: Streptococcus sp. 80; test: MIC, conventional broth-dilution microtiter test; assay type: cell-based
Description: as §3

[16] = tested on: Staphylococcus epidermidis EPI1; test: microbe, parasite or virus in culture; assay type: cell-based
Description: (§4) The MIC's in Table II were determined by standard agar-dilution assays. The MIC's in Table III were obtained using a conventional broth-dilution microtiter test.

[17] = tested on: Staphylococcus aureus S13E; test: microbe, parasite or virus in culture; assay type: cell-based
Description: as §4

[18] = tested on: Staphylococcus aureus X400; test: MIC, standard agar-dilution assay; assay type: cell-based
Description: as §4

[19] = tested on: Haemophilus influenzae C.L.; test: MIC, standard agar-dilution assay; assay type: cell-based
Description: as §4

[20] = tested on: Haemophilus influenzae 76; test: MIC, standard agar-dilution assay; assay type: cell-based
Description: as §4

[21] = tested on: Staphylococcus epidermidis EPI2; test: MIC, standard agar-dilution assay; assay type: cell-based
Description: as §4

[22] = tested on: Streptococcus Group D X66; test: MIC, standard agar-dilution assay; assay type: cell-based
Description: as §3

[23] = tested on: Klebsiella pneumoniae KAE; test: MIC, standard agar-dilution assay; assay type: cell-based; settings: agar-dilution; Klebsiella pneumoniae KAE; read-out: MIC
Summary of the method: as §1

[24] = tested on: Escherichia coli TEM; test: MIC, standard agar-dilution assay; assay type: cell-based; settings: agar-dilution; Escherichia coli TEM; read-out: MIC
Summary of the method: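 Minimum inhibitory concentrations against Escherichia coli were measured with a standard agar-dilution method. The result for each derivative is the lowest concentration that inhibits bacterial growth, given in ug/mL.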

[25] = tested on: Klebsiella pneumoniae X26; test: MIC, standard agar-dilution assay; assay type: cell-based
Summary of the method: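 The Klebsiella MIC was obtained by agar-dilution assay. Other organisms (Pasteurella hemolytica, Pasteurella multocida, Mycoplasma gallisepticum) were tested by conventional broth microdilution.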

[26] = tested on: Staphylococcus aureus X1.1; test: MIC, standard agar-dilution assay; assay type: cell-based
Summary of the method: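 Minimum inhibitory concentration against Staphylococcus aureus strain X1.1 was measured with a standard agar-dilution method. The result is reported as the MIC in ug/mL, i.e. the lowest compound concentration in agar that prevents visible growth of this organism.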

[27] = tested on: Escherichia coli EC14; test: MIC, standard agar-dilution assay; assay type: cell-based; settings: agar-dilution; Escherichia coli EC14; read-out: MIC
Description: as §3

[28] = tested on: Streptococcus pyogenes C203; test: MIC, standard agar-dilution assay; assay type: cell-based
Description: as §3

[29] = tested on: Staphylococcus aureus V41; test: MIC, standard agar-dilution assay; assay type: cell-based; settings: Staphylococcus aureus, V41
Description: as §3

[30] = tested on: Streptococcus pneumoniae Park I; test: MIC, standard agar-dilution assay; assay type: cell-based; settings: Streptococcus pneumoniae
Description: as §3

[31] = tested on: Streptococcus pyogenes 9960; test: MIC, standard agar-dilution assay; assay type: cell-based; settings: 9960
Description: as §3

[32] = tested on: Streptococcus pyogenes C203; test: Protection of mice experimentally infected with S. pyogenes C203; assay type: in vivo; settings: mg/kg × 2, doses given 1 and 4 hours postinfection
Description: Some of the derivatives of this invention have shown in vivo antimicrobial activity against experimentally-induced infections in laboratory animals. When two doses of test compound were administered to mice experimentally infected with S. pyogenes C203, the activity observed was measured as an ED50 value [effective dose in mg/kg to protect 50% of the test animals: see Warren Wick, et al., J. Bacteriol. 81, 233-235 (1961)].

[33] = C203, mice, oral, read-out: ED50 Oral
[34] = C203, sc, mice, subcutaneous, read-out: ED50 Subcutaneous

Structure (SMILES): CCC1OC(=O)CC(O)C(C)C(OC2OC(C)C(O)C(N(C)C)C2O)C(CCOc2ccccc2)CC(C)C(=O)C=CC(C)=CC1COC(=O)CCc1ccccc1 (stereo not drawn) [Compound 33, 20-O-Phenyl-20-dihydro-23-O-phenylpropionyl-OMT]
- MIC [1]: 25 µg/mL (≈ 30.9 µM)
- MIC [2]: 25 µg/mL (≈ 30.9 µM)
- MIC [3]: 0.78 µg/mL (≈ 0.965 µM)
- MIC ([4]; Pasteurella multocida, 17E): 3.12 µg/mL (≈ 3.86 µM)
- MIC ([5]; Pasteurella multocida, 60A): 3.12 µg/mL (≈ 3.86 µM)
- MIC [6]: 25 µg/mL (≈ 30.9 µM)
- MIC [7]: 6.25 µg/mL (≈ 7.73 µM)
- MIC ([8]; Pasteurella multocida, 40G): 3.12 µg/mL (≈ 3.86 µM)
- MIC ([9]; Mycoplasma): 50 µg/mL (≈ 61.9 µM)
- MIC ([10]; Pasteurella multocida, 22A): 3.12 µg/mL (≈ 3.86 µM)
- MIC [11]: 12.5 µg/mL (≈ 15.5 µM)
- MIC [12]: 0.78 µg/mL (≈ 0.965 µM)
- MIC ([13]; Pasteurella multocida, 68C): 3.12 µg/mL (≈ 3.86 µM)
- MIC [14]: 25 µg/mL (≈ 30.9 µM)
- MIC ([15]; Streptococcus, SP.80): 0.097 µg/mL (≈ 0.12 µM)
- MIC ([16]; Staphylococcus epidermidis, EPI1): 1 µg/mL (≈ 1.24 µM)
- MIC [17]: 1 µg/mL (≈ 1.24 µM)
- MIC ([18]; Staphylococcus aureus, X400): 2 µg/mL (≈ 2.48 µM)
- MIC ([19]; Haemophilus influenzae): 128 µg/mL (≈ 158 µM)
- MIC ([20]; agar-dilution, Haemophilus influenzae 76, Ampicillin-resistant strain, read-out: MIC): > 128 µg/mL
- MIC ([21]; Staphylococcus epidermidis, EPI2): 1 µg/mL (≈ 1.24 µM)
- MIC [22]: 1 µg/mL (≈ 1.24 µM)
- MIC [23]: > 128 µg/mL
- MIC [24]: > 128 µg/mL
- MIC ([25]; Klebsiella pneumoniae, X26): 32 µg/mL (≈ 39.6 µM)
- MIC ([26]; Staphylococcus aureus, X1.1): 1 µg/mL (≈ 1.24 µM)
- MIC [27]: > 128 µg/mL
- MIC ([28]; Streptococcus pyogenes, C203): 2 µg/mL (≈ 2.48 µM)
- MIC [29]: 1 µg/mL (≈ 1.24 µM)
- MIC [30]: 0.5 µg/mL (≈ 0.619 µM)
- MIC [31]: 2 µg/mL (≈ 2.48 µM)
- ED50 [32, 33]: > 50 mg/kg
- ED50 [32, 34]: > 10 mg/kg

Structure (SMILES): CCC1OC(=O)CC(O)C(C)C(OC2OC(C)C(OC3CC(C)(O)C(O)C(C)O3)C(N(C)C)C2O)C(CCNCCc2ccccc2)CC(C)C(=O)C=CC(C)=CC1CO (stereo not drawn) [Compound 16]
- MIC [1]: > 50 µg/mL
- MIC [2]: > 50 µg/mL
- MIC ([3]; broth-dilution microtiter, Mycoplasma gallisepticum, read-out: MIC): 6.25 µg/mL (≈ 7.38 µM)
- MIC ([4]; broth-dilution microtiter, Pasteurella multocida 17E, Bovine isolate, read-out: MIC): > 50 µg/mL
- MIC ([5]; broth-dilution microtiter, Pasteurella multocida 60A, Avian isolate, read-out: MIC): > 50 µg/mL
- MIC [6]: > 50 µg/mL
- MIC ([7]; broth-dilution microtiter, Mycoplasma synoviae, read-out: MIC): 6.25 µg/mL (≈ 7.38 µM)
- MIC ([8]; broth-dilution microtiter, Pasteurella multocida 40G, read-out: MIC): 50 µg/mL (≈ 59 µM)
- MIC ([9]; broth-dilution microtiter, Mycoplasma hyorhinis, read-out: MIC): > 50 µg/mL
- MIC ([10]; broth-dilution microtiter, Pasteurella multocida 22A, read-out: MIC): > 50 µg/mL
- MIC [11]: > 50 µg/mL
- MIC ([12]; broth-dilution microtiter, read-out: MIC): 12.5 µg/mL (≈ 14.8 µM)
- MIC ([13]; broth-dilution microtiter, Pasteurella multocida 68C, read-out: MIC): > 50 µg/mL
- MIC [14]: > 50 µg/mL
- MIC ([15]; broth-dilution microtiter, Streptococcus sp. 80, read-out: MIC): 12.5 µg/mL (≈ 14.8 µM)
- MIC ([16]; agar-dilution, Staphylococcus epidermidis EPI1, read-out: MIC): 16 µg/mL (≈ 18.9 µM)
- MIC [17]: 32 µg/mL (≈ 37.8 µM)
- MIC ([18]; agar-dilution, Staphylococcus aureus X400, Methicillin-resistant strain, read-out: MIC): 64 µg/mL (≈ 75.6 µM)
- MIC ([19]; agar-dilution, Haemophilus influenzae C.L., Ampicillin-sensitive strain, read-out: MIC): 64 µg/mL (≈ 75.6 µM)
- MIC ([20]; Haemophilus influenzae, 76): 16 µg/mL (≈ 18.9 µM)
- MIC ([21]; agar-dilution, Staphylococcus epidermidis EPI2, read-out: MIC): 64 µg/mL (≈ 75.6 µM)
- MIC [22]: 32 µg/mL (≈ 37.8 µM)
- MIC [23]: > 128 µg/mL
- MIC [24]: > 128 µg/mL
- MIC ([25]; agar-dilution, Klebsiella pneumoniae X26, read-out: MIC): 128 µg/mL (≈ 151 µM)
- MIC ([26]; agar-dilution, Staphylococcus aureus X1.1, read-out: MIC): 16 µg/mL (≈ 18.9 µM)
- MIC [27]: > 128 µg/mL
- MIC ([28]; agar-dilution, Streptococcus pyogenes C203, read-out: MIC): 8 µg/mL (≈ 9.44 µM)
- MIC [29]: 32 µg/mL (≈ 37.8 µM)
- MIC [30]: 4 µg/mL (≈ 4.72 µM)
- MIC [31]: 32 µg/mL (≈ 37.8 µM)
- ED50 [32, 33]: 88 mg/kg
- ED50 [32, 34]: 10.4 mg/kg
